{
  "source": "patent US20230157952A1",
  "about": "“METHOD FOR IMPROVING THE STABILITY OF A PHARMACEUTICAL COMPOSITION COMPRISING A HIGH PENETRATION DRUG, AND THE PHARMACEUTICAL COMPOSITION OBTAINED THEREFROM” (Techfields Inc., priority 2020, published 2023)",
  "assay": "Effect of concentration on the stability of the solution (purity over time)",
  "conditions": "for Stability of common ester over the concentrations tested: 0.01% to 10% (or higher) in 50% ethanol at 25° C.; for Purity (%) at Day 3 / Purity (%) at Day 7 / Purity (%) at hr 0 / Purity (%) at hr 24 / Purity(%) at Day 14 / Purity(%) at Day 21 / Purity(%) at Day 28: 25° C.",
  "data": [
    {"smiles": "CC(C)OC(=O)C(N)Cc1ccccc1", "note": "(centres unmarked) [Isopropyl 2-amino-3-phenylpropanoate, reference compound]", "values": [
      {"measurement": "Stability of common ester over the concentrations tested", "result": "quite stable"},
      {"measurement": "Purity (%) at Day 3", "setting": "0.01 wt % in 50% ethanol", "result": 97.4, "unit": "%"},
      {"measurement": "Purity (%) at Day 7", "setting": "0.01 wt % in 50% ethanol", "result": 97.1, "unit": "%"},
      {"measurement": "Purity (%) at hr 0", "setting": "0.01 wt % in 50% ethanol", "result": 98.4, "unit": "%"},
      {"measurement": "Purity (%) at hr 24", "setting": "0.01 wt % in 50% ethanol", "result": 98.3, "unit": "%"},
      {"measurement": "Purity(%) at Day 14", "setting": "0.01 wt % in 50% ethanol", "result": 96.5, "unit": "%"},
      {"measurement": "Purity(%) at Day 21", "setting": "0.01 wt % in 50% ethanol", "result": 95.9, "unit": "%"},
      {"measurement": "Purity(%) at Day 28", "setting": "0.01 wt % in 50% ethanol", "result": 95.1, "unit": "%"},
      {"measurement": "Purity (%) at Day 3", "setting": "0.1 wt % in 50% ethanol", "result": 97.6, "unit": "%"},
      {"measurement": "Purity (%) at Day 7", "setting": "0.1 wt % in 50% ethanol", "result": 97.3, "unit": "%"},
      {"measurement": "Purity (%) at hr 0", "setting": "0.1 wt % in 50% ethanol", "result": 98.5, "unit": "%"},
      {"measurement": "Purity (%) at hr 24", "setting": "0.1 wt % in 50% ethanol", "result": 98.4, "unit": "%"},
      {"measurement": "Purity(%) at Day 14", "setting": "0.1 wt % in 50% ethanol", "result": 96.8, "unit": "%"},
      {"measurement": "Purity(%) at Day 21", "setting": "0.1 wt % in 50% ethanol", "result": 96.5, "unit": "%"},
      {"measurement": "Purity(%) at Day 28", "setting": "0.1 wt % in 50% ethanol", "result": 95.7, "unit": "%"},
      {"measurement": "Purity (%) at Day 3", "setting": "1 wt % in 50% ethanol", "result": 97.9, "unit": "%"},
      {"measurement": "Purity (%) at Day 7", "setting": "1 wt % in 50% ethanol", "result": 97.6, "unit": "%"},
      {"measurement": "Purity (%) at hr 0", "setting": "1 wt % in 50% ethanol", "result": 98.7, "unit": "%"},
      {"measurement": "Purity (%) at hr 24", "setting": "1 wt % in 50% ethanol", "result": 98.5, "unit": "%"},
      {"measurement": "Purity(%) at Day 14", "setting": "1 wt % in 50% ethanol", "result": 97.2, "unit": "%"},
      {"measurement": "Purity(%) at Day 21", "setting": "1 wt % in 50% ethanol", "result": 96.8, "unit": "%"},
      {"measurement": "Purity(%) at Day 28", "setting": "1 wt % in 50% ethanol", "result": 96.1, "unit": "%"},
      {"measurement": "Purity (%) at Day 3", "setting": "3 wt % in 50% ethanol", "result": 98.2, "unit": "%"},
      {"measurement": "Purity (%) at Day 7", "setting": "3 wt % in 50% ethanol", "result": 97.8, "unit": "%"},
      {"measurement": "Purity (%) at hr 0", "setting": "3 wt % in 50% ethanol", "result": 98.7, "unit": "%"},
      {"measurement": "Purity (%) at hr 24", "setting": "3 wt % in 50% ethanol", "result": 98.6, "unit": "%"},
      {"measurement": "Purity(%) at Day 14", "setting": "3 wt % in 50% ethanol", "result": 97.4, "unit": "%"},
      {"measurement": "Purity(%) at Day 21", "setting": "3 wt % in 50% ethanol", "result": 97.0, "unit": "%"},
      {"measurement": "Purity(%) at Day 28", "setting": "3 wt % in 50% ethanol", "result": 96.5, "unit": "%"},
      {"measurement": "Purity (%) at Day 3", "setting": "5 wt % in 50% ethanol", "result": 98.5, "unit": "%"},
      {"measurement": "Purity (%) at Day 7", "setting": "5 wt % in 50% ethanol", "result": 98.4, "unit": "%"},
      {"measurement": "Purity (%) at hr 0", "setting": "5 wt % in 50% ethanol", "result": 98.7, "unit": "%"},
      {"measurement": "Purity (%) at hr 24", "setting": "5 wt % in 50% ethanol", "result": 98.6, "unit": "%"},
      {"measurement": "Purity(%) at Day 14", "setting": "5 wt % in 50% ethanol", "result": 98.2, "unit": "%"},
      {"measurement": "Purity(%) at Day 21", "setting": "5 wt % in 50% ethanol", "result": 97.8, "unit": "%"},
      {"measurement": "Purity(%) at Day 28", "setting": "5 wt % in 50% ethanol", "result": 97.1, "unit": "%"},
      {"measurement": "Purity (%) at Day 3", "setting": "10 wt % in 50% ethanol", "result": 98.6, "unit": "%"},
      {"measurement": "Purity (%) at Day 7", "setting": "10 wt % in 50% ethanol", "result": 98.5, "unit": "%"},
      {"measurement": "Purity (%) at hr 0", "setting": "10 wt % in 50% ethanol", "result": 98.8, "unit": "%"},
      {"measurement": "Purity (%) at hr 24", "setting": "10 wt % in 50% ethanol", "result": 98.7, "unit": "%"},
      {"measurement": "Purity(%) at Day 14", "setting": "10 wt % in 50% ethanol", "result": 98.3, "unit": "%"},
      {"measurement": "Purity(%) at Day 21", "setting": "10 wt % in 50% ethanol", "result": 97.9, "unit": "%"},
      {"measurement": "Purity(%) at Day 28", "setting": "10 wt % in 50% ethanol", "result": 97.3, "unit": "%"}
    ]},
    {"smiles": "CC(C)OC(=O)c1ccccc1", "note": "[Isopropyl benzoate, reference compound]", "values": [
      {"measurement": "Stability of common ester over the concentrations tested", "result": "very stable"},
      {"measurement": "Purity (%) at Day 3", "setting": "0.01 wt % in 50% ethanol", "result": 98.1, "unit": "%"},
      {"measurement": "Purity (%) at Day 7", "setting": "0.01 wt % in 50% ethanol", "result": 98.3, "unit": "%"},
      {"measurement": "Purity (%) at hr 0", "setting": "0.01 wt % in 50% ethanol", "result": 98.4, "unit": "%"},
      {"measurement": "Purity (%) at hr 24", "setting": "0.01 wt % in 50% ethanol", "result": 98.3, "unit": "%"},
      {"measurement": "Purity(%) at Day 14", "setting": "0.01 wt % in 50% ethanol", "result": 98.2, "unit": "%"},
      {"measurement": "Purity(%) at Day 28", "setting": "0.01 wt % in 50% ethanol", "result": 98.2, "unit": "%"},
      {"measurement": "Purity (%) at Day 3", "setting": "0.1 wt % in 50% ethanol", "result": 98.4, "unit": "%"},
      {"measurement": "Purity (%) at Day 7", "setting": "0.1 wt % in 50% ethanol", "result": 98.4, "unit": "%"},
      {"measurement": "Purity (%) at hr 0", "setting": "0.1 wt % in 50% ethanol", "result": 98.4, "unit": "%"},
      {"measurement": "Purity (%) at hr 24", "setting": "0.1 wt % in 50% ethanol", "result": 98.5, "unit": "%"},
      {"measurement": "Purity(%) at Day 14", "setting": "0.1 wt % in 50% ethanol", "result": 98.3, "unit": "%"},
      {"measurement": "Purity(%) at Day 28", "setting": "0.1 wt % in 50% ethanol", "result": 98.3, "unit": "%"},
      {"measurement": "Purity (%) at Day 3", "setting": "1 wt % in 50% ethanol", "result": 98.5, "unit": "%"},
      {"measurement": "Purity (%) at Day 7", "setting": "1 wt % in 50% ethanol", "result": 98.4, "unit": "%"},
      {"measurement": "Purity (%) at hr 0", "setting": "1 wt % in 50% ethanol", "result": 98.5, "unit": "%"},
      {"measurement": "Purity (%) at hr 24", "setting": "1 wt % in 50% ethanol", "result": 98.4, "unit": "%"},
      {"measurement": "Purity(%) at Day 14", "setting": "1 wt % in 50% ethanol", "result": 98.3, "unit": "%"},
      {"measurement": "Purity(%) at Day 28", "setting": "1 wt % in 50% ethanol", "result": 98.3, "unit": "%"},
      {"measurement": "Purity (%) at Day 3", "setting": "3 wt % in 50% ethanol", "result": 98.4, "unit": "%"},
      {"measurement": "Purity (%) at Day 7", "setting": "3 wt % in 50% ethanol", "result": 98.4, "unit": "%"},
      {"measurement": "Purity (%) at hr 0", "setting": "3 wt % in 50% ethanol", "result": 98.4, "unit": "%"},
      {"measurement": "Purity (%) at hr 24", "setting": "3 wt % in 50% ethanol", "result": 98.6, "unit": "%"},
      {"measurement": "Purity(%) at Day 14", "setting": "3 wt % in 50% ethanol", "result": 98.4, "unit": "%"},
      {"measurement": "Purity(%) at Day 28", "setting": "3 wt % in 50% ethanol", "result": 98.4, "unit": "%"},
      {"measurement": "Purity (%) at Day 3", "setting": "5 wt % in 50% ethanol", "result": 98.7, "unit": "%"},
      {"measurement": "Purity (%) at Day 7", "setting": "5 wt % in 50% ethanol", "result": 98.4, "unit": "%"},
      {"measurement": "Purity (%) at hr 0", "setting": "5 wt % in 50% ethanol", "result": 98.5, "unit": "%"},
      {"measurement": "Purity (%) at hr 24", "setting": "5 wt % in 50% ethanol", "result": 98.4, "unit": "%"},
      {"measurement": "Purity(%) at Day 14", "setting": "5 wt % in 50% ethanol", "result": 98.4, "unit": "%"},
      {"measurement": "Purity(%) at Day 28", "setting": "5 wt % in 50% ethanol", "result": 98.4, "unit": "%"},
      {"measurement": "Purity (%) at Day 3", "setting": "10 wt % in 50% ethanol", "result": 98.4, "unit": "%"},
      {"measurement": "Purity (%) at Day 7", "setting": "10 wt % in 50% ethanol", "result": 98.4, "unit": "%"},
      {"measurement": "Purity (%) at hr 0", "setting": "10 wt % in 50% ethanol", "result": 98.5, "unit": "%"},
      {"measurement": "Purity (%) at hr 24", "setting": "10 wt % in 50% ethanol", "result": 98.8, "unit": "%"},
      {"measurement": "Purity(%) at Day 14", "setting": "10 wt % in 50% ethanol", "result": 98.4, "unit": "%"},
      {"measurement": "Purity(%) at Day 28", "setting": "10 wt % in 50% ethanol", "result": 98.4, "unit": "%"}
    ]}
  ]
}
